Assay results as given in ChEMBL document CHEMBL1681676, “The design and synthesis of novel N-hydroxyformamide inhibitors of ADAM-TS4 for the treatment of osteoarthritis” (Bioorg Med Chem Lett, 2011).

tested on: not listed separately; experiment: Clearance in Han Wistar rat at 2 mg/kg, iv by LC-MS/MS analysis; type: ADME, organism-based; parameters: dose 2 mg/kg, route intravenous; conditions: in vivo

Row | Structure (SMILES) | clearance [mL/min/kg]
1 | C[C@@H](C[C@@](C)(CS(=O)(=O)N1CCC(CCc2ccc(Cl)cc2Cl)CC1)N(O)C=O)c1ncc(F)cn1 | 20

target: Voltage-gated inwardly rectifying potassium channel KCNH2 (Homo sapiens, UniProt Q12809); experiment: Inhibition of human ERG; conditions: not given
Sequence (Q12809 whole entry): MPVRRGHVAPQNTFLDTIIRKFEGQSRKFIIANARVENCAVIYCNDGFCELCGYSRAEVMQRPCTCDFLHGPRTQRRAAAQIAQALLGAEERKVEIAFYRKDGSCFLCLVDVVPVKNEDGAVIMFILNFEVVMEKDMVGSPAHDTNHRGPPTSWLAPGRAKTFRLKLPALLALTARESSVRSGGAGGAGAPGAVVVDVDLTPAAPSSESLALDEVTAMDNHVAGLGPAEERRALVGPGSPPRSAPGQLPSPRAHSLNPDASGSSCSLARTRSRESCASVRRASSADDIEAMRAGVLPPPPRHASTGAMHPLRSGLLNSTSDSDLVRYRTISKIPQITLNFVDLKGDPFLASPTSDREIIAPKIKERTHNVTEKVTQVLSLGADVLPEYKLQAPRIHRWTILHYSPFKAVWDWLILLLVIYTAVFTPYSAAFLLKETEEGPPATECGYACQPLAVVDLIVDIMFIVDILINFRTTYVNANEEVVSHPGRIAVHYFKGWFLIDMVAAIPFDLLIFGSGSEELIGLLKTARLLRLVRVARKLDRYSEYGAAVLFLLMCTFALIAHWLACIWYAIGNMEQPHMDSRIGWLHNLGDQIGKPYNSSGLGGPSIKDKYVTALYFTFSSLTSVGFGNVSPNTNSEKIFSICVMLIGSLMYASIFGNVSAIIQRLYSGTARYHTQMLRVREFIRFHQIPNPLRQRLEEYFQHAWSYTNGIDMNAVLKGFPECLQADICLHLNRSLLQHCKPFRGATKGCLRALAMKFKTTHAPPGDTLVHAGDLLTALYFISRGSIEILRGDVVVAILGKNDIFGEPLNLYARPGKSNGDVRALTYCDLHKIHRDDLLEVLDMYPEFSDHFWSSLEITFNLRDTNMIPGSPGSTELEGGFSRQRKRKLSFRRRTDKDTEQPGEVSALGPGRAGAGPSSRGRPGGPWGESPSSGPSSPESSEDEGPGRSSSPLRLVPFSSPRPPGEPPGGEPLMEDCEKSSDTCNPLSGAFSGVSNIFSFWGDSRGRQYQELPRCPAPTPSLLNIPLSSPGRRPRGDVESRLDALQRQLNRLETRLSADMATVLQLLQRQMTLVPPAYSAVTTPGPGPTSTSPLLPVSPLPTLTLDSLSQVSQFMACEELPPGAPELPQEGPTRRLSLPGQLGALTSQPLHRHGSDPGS

Row | Structure (SMILES) | IC50 [nM]
2 | C[C@@H](C[C@@H](CS(=O)(=O)N1CCN(c2ccc(F)cc2)CC1)N(O)C=O)c1ncc(F)cn1 | 26000
3 | C[C@@H](C[C@@](C)(CS(=O)(=O)N1CCN(c2ccc(F)cc2)CC1)N(O)C=O)c1ncc(F)cn1 | 21000

target: Matrix metalloproteinase-14 (Homo sapiens, UniProt P50281); experiment: Inhibition of recombinant human MMP14 assessed as substrate cleavage by measuring increase in fluorescence after 16 hrs; conditions: not given

Row | Structure (SMILES) | IC50 [nM]
4 | C[C@@H](C[C@@H](CS(=O)(=O)N1CCN(c2ccc(F)cc2)CC1)N(O)C=O)c1ncc(F)cn1 | 11
5 | C[C@@H](C[C@@](C)(CS(=O)(=O)N1CCN(c2ccc(F)cc2)CC1)N(O)C=O)c1ncc(F)cn1 | 7.6

target: T1, Interstitial collagenase (Homo sapiens, UniProt P03956); experiment: Inhibition of recombinant human MMP1 assessed as substrate cleavage by measuring increase in fluorescence after 16 hrs; conditions: not given
T1 sequence (P03956 whole entry): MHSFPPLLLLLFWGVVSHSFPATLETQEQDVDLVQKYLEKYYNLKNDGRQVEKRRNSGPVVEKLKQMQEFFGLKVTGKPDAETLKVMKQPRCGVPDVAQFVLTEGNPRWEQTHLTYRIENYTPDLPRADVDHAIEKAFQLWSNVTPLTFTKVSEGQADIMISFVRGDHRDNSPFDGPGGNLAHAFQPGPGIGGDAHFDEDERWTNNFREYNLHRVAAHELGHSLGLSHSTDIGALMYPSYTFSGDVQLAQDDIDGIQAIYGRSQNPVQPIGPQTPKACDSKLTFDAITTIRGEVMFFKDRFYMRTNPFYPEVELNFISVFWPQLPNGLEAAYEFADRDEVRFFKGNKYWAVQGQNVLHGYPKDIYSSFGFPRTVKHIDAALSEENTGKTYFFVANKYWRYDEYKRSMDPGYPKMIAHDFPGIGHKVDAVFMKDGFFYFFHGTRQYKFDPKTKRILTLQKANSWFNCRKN

Row | Structure (SMILES) | IC50 [nM]
6 | C[C@@H](C[C@@H](CS(=O)(=O)N1CCN(c2ccc(F)cc2)CC1)N(O)C=O)c1ncc(F)cn1 | > 1100
7 | C[C@@H](C[C@@](C)(CS(=O)(=O)N1CCN(c2ccc(F)cc2)CC1)N(O)C=O)c1ncc(F)cn1 | 980

target: T2, A disintegrin and metalloproteinase with thrombospondin motifs 4 (Homo sapiens, UniProt O75173); experiment: Inhibition of ADAMTS-4 assessed as substrate cleavage by measuring increase in fluorescence after 16 hrs; conditions: not given
T2 sequence (O75173 whole entry): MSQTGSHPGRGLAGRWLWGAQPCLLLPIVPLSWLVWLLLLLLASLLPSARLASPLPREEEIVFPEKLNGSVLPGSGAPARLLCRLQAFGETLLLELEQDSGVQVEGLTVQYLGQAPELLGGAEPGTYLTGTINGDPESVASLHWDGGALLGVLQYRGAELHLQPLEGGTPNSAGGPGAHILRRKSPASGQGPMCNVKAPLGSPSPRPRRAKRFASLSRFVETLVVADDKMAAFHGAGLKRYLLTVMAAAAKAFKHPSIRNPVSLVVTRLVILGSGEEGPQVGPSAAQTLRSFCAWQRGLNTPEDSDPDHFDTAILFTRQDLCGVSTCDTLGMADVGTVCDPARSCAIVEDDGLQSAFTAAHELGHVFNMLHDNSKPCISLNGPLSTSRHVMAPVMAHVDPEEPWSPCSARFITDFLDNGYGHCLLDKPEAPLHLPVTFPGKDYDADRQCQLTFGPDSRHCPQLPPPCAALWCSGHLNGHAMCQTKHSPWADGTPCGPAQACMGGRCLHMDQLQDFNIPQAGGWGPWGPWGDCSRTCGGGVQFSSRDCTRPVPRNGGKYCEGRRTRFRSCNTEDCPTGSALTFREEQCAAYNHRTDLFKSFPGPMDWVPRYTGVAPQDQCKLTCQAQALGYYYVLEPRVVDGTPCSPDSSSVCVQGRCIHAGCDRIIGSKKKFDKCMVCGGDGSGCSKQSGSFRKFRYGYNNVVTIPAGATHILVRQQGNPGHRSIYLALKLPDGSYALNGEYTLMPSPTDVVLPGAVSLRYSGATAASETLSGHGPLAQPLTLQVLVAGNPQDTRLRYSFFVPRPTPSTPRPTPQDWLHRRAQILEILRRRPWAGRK

Row | Structure (SMILES) | IC50 [nM]
8 | C[C@@H](C[C@@H](CS(=O)(=O)N1CCN(c2ccc(F)cc2)CC1)N(O)C=O)c1ncc(F)cn1 | 1.4
9 | C[C@@H](C[C@@](C)(CS(=O)(=O)N1CCN(c2ccc(F)cc2)CC1)N(O)C=O)c1ncc(F)cn1 | 7.3
10 | C[C@@H](C[C@@](C)(CS(=O)(=O)N1CCC(CCc2ccc(Cl)cc2Cl)CC1)N(O)C=O)c1ncc(F)cn1 | 1.1

tested on: not listed separately; experiment: Oral bioavailability in Han Wistar rat at 3 to 10 mg/kg by LC-MS/MS analysis; type: ADME, organism-based; conditions: in vivo

Row | Structure (SMILES) | bioavailability [%]
11 | C[C@@H](C[C@@](C)(CS(=O)(=O)N1CCC(CCc2ccc(Cl)cc2Cl)CC1)N(O)C=O)c1ncc(F)cn1 | 38

target: Cytochrome P450 3A4 (Homo sapiens, UniProt P08684); experiment: Inhibition of CYP3A4; type: ADME; conditions: not given
Sequence (P08684 whole entry): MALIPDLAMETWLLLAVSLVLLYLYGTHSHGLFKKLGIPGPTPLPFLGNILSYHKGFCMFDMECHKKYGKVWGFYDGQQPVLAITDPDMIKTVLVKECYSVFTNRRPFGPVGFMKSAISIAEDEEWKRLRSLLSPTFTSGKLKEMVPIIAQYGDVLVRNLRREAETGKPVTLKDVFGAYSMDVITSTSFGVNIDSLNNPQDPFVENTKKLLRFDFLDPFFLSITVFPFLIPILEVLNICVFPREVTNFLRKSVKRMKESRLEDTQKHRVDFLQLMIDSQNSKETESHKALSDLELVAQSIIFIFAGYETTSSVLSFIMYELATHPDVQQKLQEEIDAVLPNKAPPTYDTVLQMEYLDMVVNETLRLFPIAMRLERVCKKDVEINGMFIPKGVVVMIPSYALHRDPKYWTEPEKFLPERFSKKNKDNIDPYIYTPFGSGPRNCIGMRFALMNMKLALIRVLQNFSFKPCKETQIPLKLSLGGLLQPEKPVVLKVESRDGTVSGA

Row | Structure (SMILES) | IC50 [nM]
12 | C[C@@H](C[C@@H](CS(=O)(=O)N1CCN(c2ccc(F)cc2)CC1)N(O)C=O)c1ncc(F)cn1 | 1400
13 | C[C@@H](C[C@@](C)(CS(=O)(=O)N1CCN(c2ccc(F)cc2)CC1)N(O)C=O)c1ncc(F)cn1 | > 10000

tested on: not listed separately; experiment: Half life in Han Wistar rat at 2 mg/kg, iv and po by LC-MS/MS analysis; type: ADME, organism-based; parameters: dose 2 mg/kg, route oral; conditions: in vivo

Row | Structure (SMILES) | half-life [h]
14 | C[C@@H](C[C@@](C)(CS(=O)(=O)N1CCC(CCc2ccc(Cl)cc2Cl)CC1)N(O)C=O)c1ncc(F)cn1 | 14.9

target: Collagenase 3 (Homo sapiens, UniProt P45452); experiment: Inhibition of recombinant human MMP13 assessed as substrate cleavage by measuring increase in fluorescence after 16 hrs; conditions: not given

Row | Structure (SMILES) | IC50 [nM]
15 | C[C@@H](C[C@@H](CS(=O)(=O)N1CCN(c2ccc(F)cc2)CC1)N(O)C=O)c1ncc(F)cn1 | 11
16 | C[C@@H](C[C@@](C)(CS(=O)(=O)N1CCN(c2ccc(F)cc2)CC1)N(O)C=O)c1ncc(F)cn1 | 7.6

tested on: not listed separately; experiment: Intrinsic clearance in human liver microsomes; conditions: not given

Row | Structure (SMILES) | microsomal CLint [µL/min/mg]
17 | C[C@@H](C[C@@](C)(CS(=O)(=O)N1CCC(CCc2ccc(Cl)cc2Cl)CC1)N(O)C=O)c1ncc(F)cn1 | 6.9

tested on: not listed separately; experiment: Intrinsic clearance in rat hepatocytes measured per 10^6 cells; type: ADME, cell-based, Liver, Hepatocyte; conditions: not given

Row | Structure (SMILES) | hepatocyte CLint [µL/min/1e6 cells]
18 | C[C@@H](C[C@@](C)(CS(=O)(=O)N1CCC(CCc2ccc(Cl)cc2Cl)CC1)N(O)C=O)c1ncc(F)cn1 | 7.6
